According to ChEMBL document CHEMBL5154839, “Discovery of a selective and covalent small-molecule inhibitor of BFL-1 protein that induces robust apoptosis in cancer cells” (Eur J Med Chem, 2022):
Calls of active or inactive are those of the source. The calls are words filed in the database; no cut-off is given here.

How the values were obtained:
Bcl-2-related protein A1 = biological target: T1, Bcl-2-related protein A1 (Homo sapiens, UniProt Q16548); test: Displacement of fluorescein tagged BID BH3 peptide from His-tagged recombinant BFL-1 (1 to 151 residues) (unknown origin) expressed in Escherichia coli BL21 (DE3) assessed as inhibition constant incubated for 24 hrs by fluorescence polarization-based competitive binding assay
T1 sequence (Q16548 whole entry): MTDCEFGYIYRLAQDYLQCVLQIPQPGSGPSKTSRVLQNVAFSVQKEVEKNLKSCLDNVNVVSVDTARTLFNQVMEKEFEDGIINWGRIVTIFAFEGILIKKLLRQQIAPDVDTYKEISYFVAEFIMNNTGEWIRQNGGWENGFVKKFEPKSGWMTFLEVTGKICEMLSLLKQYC

[1] = biological target: Bcl-2-related protein A1 (Homo sapiens) (UniProt Q16548); test: Binding affinity to His-tagged recombinant BFL-1 (1 to 151 residues) (unknown origin) expressed in Escherichia coli BL21 (DE3) assessed as association constant by surface plasmon resonance analysis
Homo sapiens = organism: Homo sapiens; test: Displacement of fluorescein tagged BID BH3 peptide from His-tagged recombinant BFL-1 (1 to 151 residues) C55A mutant (unknown origin) expressed in Escherichia coli BL21 (DE3) assessed as fold decrease in inhibition constant incubated for 24 hrs by fluorescence polarization-based competitive binding assay relative to wild type
[2] = biological target: Transcriptional enhancer factor TEF-4 (Homo sapiens, UniProt Q15562); test: Displacement of FAM- labeled YAP1 peptide from TEAD2 (217 to 447 residues) (unknown origin) expressed in Escherichia coli BL21 (DE3) assessed as inhibition constant incubated for 1.5 hrs by fluorescence polarization-based competitive binding assay
[3] = biological target: Bromodomain-containing protein 2 (Homo sapiens, UniProt P25440); test: Binding affinity to recombinant human BRD2 BD2 (349-460 residues) assessed as inhibition constant by fluorescence polarization assay
[4] = biological target: T2, Bromodomain-containing protein 3 (Homo sapiens, UniProt Q15059); test: Binding affinity to recombinant human BRD3 BD1 (24-144 residues) assessed as inhibition constant by fluorescence polarization assay
[5] = biological target: T2, Bromodomain-containing protein 3; test: Binding affinity to recombinant human BRD3 BD2 (306-417 residues) assessed as inhibition constant by fluorescence polarization assay
U-937 [6] = test: Induction of apoptosis in human U-937 cells assessed as increase in cytochrome c level incubated for 3 hrs by immunoblotting analysis; assay type: functional, cell-based
U-937 [7] = test: Induction of apoptosis in human U-937 cells overexpressing BFL-1 assessed as increase in cytochrome c level incubated for 3 hrs by immunoblotting analysis; assay type: functional, cell-based
U-937 [8] = test: Induction of apoptosis in human U-937 cells assessed as increase in BFL-1 protein expression after 24 hrs by Western blot analysis; assay type: functional, cell-based; details: DDE = dose-dependent effect
U-937 [9] = test: Induction of apoptosis in human U-937 cells assessed as early apoptotic cells at 10 uM measured after 4 hrs by Annexin PI staining based flow cytometry method (reference value: 1.95 %); assay type: functional
U-937 [10] = test: Induction of apoptosis in human U-937 cells assessed as late apoptotic cells at 10 uM measured after 4 hrs by Annexin PI staining based flow cytometry method (reference value: 1.62 %); assay type: functional
U-937 [11] = test: Induction of apoptosis in human U-937 cells assessed as necrotic cells at 10 uM measured after 4 hrs by Annexin PI staining based flow cytometry method (reference value: 0.00 %); assay type: functional
U-937 [12] = test: Induction of apoptosis in human U-937 cells assessed as early apoptotic cells at 40 uM measured after 4 hrs by Annexin PI staining based flow cytometry method (reference value: 1.95 %); assay type: functional
U-937 [13] = test: Induction of apoptosis in human U-937 cells assessed as late apoptotic cells at 60 uM measured after 4 hrs by Annexin PI staining based flow cytometry method (reference value: 1.62 %); assay type: functional
U-937 [14] = test: Induction of apoptosis in human U-937 cells assessed as necrotic cells at 60 uM measured after 4 hrs by Annexin PI staining based flow cytometry method (reference value: 0.00 %); assay type: functional
Kasumi 1 = test: Growth inhibition of human Kasumi 1 cells incubated for 4 days by WST assay; assay type: functional, cell-based; details: Kasumi 1, 96 h
MV4-11 = test: Growth inhibition of human MV4-11 cells incubated for 4 days by WST assay; assay type: functional, cell-based; details: MV4-11, 96 h
U-937 [15] = test: Upregulation of BFL-1 protein expression in human U-937 cells by Western blotting analysis; assay type: functional, cell-based
RPMI-8226 = test: Upregulation of BFL-1protein expression in human RPMI-8226 cells by Western blotting analysis; assay type: functional, cell-based
K562 = test: Upregulation of BFL-1protein expression in human K562 cells by Western blotting analysis; assay type: functional, cell-based
MM1.S = test: Upregulation of BFL-1protein expression in human MM1.S cells by Western blotting analysis; assay type: functional, cell-based
[16] = biological target: BCL2A11/BBC3 (Homo sapiens) (UniProt Q16548+Q9BXH1); test: Inhibition of human BFL-1/PUMA protein-protein interaction in human Kasumi 1 cells assessed as increase in BFL-1 protein level at 20 to 80 uM measured after 5 hrs by co-immunoprecipitation assay; assay type: cell-based; details: dose 20-80 µM
U-937 [17] = test: Induction of apoptosis in human U-937 cells assessed as assessed as increase in PARP cleavage measured after 24 hrs by Western blot analysis; assay type: functional, cell-based; details: DDE = dose-dependent effect

T2 sequence (Q15059 whole entry, the tested form may be a part): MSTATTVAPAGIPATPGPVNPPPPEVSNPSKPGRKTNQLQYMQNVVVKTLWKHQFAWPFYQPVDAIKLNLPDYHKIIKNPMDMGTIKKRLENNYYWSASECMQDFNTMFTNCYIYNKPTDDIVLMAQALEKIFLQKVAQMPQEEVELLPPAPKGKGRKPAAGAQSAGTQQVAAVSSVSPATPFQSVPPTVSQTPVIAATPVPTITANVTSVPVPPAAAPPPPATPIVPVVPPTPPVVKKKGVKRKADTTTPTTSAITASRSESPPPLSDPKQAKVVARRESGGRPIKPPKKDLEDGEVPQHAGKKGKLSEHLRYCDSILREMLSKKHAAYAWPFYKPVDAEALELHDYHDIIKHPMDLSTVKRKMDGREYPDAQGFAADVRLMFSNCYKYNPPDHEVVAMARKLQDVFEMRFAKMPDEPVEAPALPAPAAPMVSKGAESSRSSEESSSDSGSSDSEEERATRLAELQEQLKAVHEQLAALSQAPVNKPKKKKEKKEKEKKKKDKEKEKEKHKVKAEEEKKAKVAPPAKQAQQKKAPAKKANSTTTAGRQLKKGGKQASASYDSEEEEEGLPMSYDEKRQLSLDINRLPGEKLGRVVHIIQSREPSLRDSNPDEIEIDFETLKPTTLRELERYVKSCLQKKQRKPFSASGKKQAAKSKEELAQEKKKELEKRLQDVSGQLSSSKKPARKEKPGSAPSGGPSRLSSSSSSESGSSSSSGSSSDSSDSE
Sequence of Transcriptional enhancer factor TEF-4 (Q15562 whole entry, the tested form may be a part): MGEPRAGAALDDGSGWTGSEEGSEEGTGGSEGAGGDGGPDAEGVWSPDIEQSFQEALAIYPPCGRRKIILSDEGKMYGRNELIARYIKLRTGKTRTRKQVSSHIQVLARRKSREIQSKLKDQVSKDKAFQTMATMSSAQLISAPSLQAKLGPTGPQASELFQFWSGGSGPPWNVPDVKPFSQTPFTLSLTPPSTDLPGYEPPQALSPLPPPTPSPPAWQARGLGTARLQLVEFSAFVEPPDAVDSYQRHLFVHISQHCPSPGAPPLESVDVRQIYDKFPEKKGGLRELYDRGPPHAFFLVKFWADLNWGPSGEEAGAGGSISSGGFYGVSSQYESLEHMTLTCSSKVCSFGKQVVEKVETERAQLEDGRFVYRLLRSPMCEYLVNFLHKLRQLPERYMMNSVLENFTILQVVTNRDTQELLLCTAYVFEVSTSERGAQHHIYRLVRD
Sequence of Bromodomain-containing protein 2 (P25440 whole entry, the tested form may be a part): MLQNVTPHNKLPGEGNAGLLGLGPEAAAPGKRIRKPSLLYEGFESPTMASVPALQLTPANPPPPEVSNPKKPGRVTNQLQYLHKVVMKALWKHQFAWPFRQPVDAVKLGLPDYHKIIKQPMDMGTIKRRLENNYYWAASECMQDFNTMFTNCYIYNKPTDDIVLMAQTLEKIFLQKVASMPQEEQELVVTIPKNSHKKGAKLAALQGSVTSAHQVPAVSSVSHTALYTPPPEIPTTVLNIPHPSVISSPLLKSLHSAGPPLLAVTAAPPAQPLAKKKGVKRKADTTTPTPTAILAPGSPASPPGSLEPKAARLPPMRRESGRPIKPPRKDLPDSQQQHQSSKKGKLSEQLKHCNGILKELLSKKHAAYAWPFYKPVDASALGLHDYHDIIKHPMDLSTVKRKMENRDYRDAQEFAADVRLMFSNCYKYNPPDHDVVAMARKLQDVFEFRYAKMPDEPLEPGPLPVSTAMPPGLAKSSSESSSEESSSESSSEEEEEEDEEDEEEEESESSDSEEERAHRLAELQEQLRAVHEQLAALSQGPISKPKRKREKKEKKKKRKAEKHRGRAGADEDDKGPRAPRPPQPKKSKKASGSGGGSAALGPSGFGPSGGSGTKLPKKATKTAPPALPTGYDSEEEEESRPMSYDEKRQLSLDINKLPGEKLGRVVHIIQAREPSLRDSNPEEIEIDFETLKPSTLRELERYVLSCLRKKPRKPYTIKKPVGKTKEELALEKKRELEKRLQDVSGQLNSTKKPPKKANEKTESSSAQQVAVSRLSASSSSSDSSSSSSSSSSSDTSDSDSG
Sequence of BCL2A11/BBC3 (Homo sapiens) (Q9BXH1 whole entry, looked up, one chain of several): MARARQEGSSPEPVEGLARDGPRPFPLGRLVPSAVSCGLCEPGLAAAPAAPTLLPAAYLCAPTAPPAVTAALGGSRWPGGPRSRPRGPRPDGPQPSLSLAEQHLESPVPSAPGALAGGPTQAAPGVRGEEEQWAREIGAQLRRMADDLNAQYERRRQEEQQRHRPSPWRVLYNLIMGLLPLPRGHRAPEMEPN

Ki (Bcl-2-related protein A1): 0.41 µM
Ka [1]: 2.09 10^5/Ms
fold change (FC) (Homo sapiens): 21
Ki [2]: > 400 µM
Ki [3]: > 400 µM
Ki [4]: > 400 µM
Ki [5]: > 400 µM
IC50 (MV4-11): 3.9 µM
Activity [16]: Active
SMILES: C=CC(=O)N1CCN(c2c3ccc(-c4cccc(F)c4)cc3nn2Cc2ccccc2)CC1
Activity (U-937 [6]): Active
Activity (U-937 [7]): Active
Activity (U-937 [8]): Dde
Activity (U-937 [9]): 6.03%
Activity (U-937 [10]): 2.19%
Activity (U-937 [11]): 0.16%
Activity (U-937 [12]): 5.52%
Activity (U-937 [13]): 21.52%
Activity (U-937 [14]): 11.37%
IC50 (Kasumi 1): 5.5 µM
Activity (U-937 [15]): Active
Activity (RPMI-8226): Active
Activity (K562): Active
Activity (MM1.S): Active
Activity (U-937 [17]): Dde
